# Experimental data as given in patent US12723063B2, “GIPR-agonist compounds” (Eli Lilly and Company, priority 2019, dated 2026).
# pKi: −log10 of the molar value. *1 amine or outer side, *2 acyl side, *3 side chain or, on linkers, in order; H or OH if unused. Where a SMILES comes first, the peptide text is derived from it. Side-chain parts run from the residue outwards. [ ]: non-standard residue; d: D form. The star is where a group is joined. C20 diacid = O=C(O)CCCCCCCCCCCCCCCCCCC(=O)*; γGlu = O=C(O)[C@H](CCC(=O)[*:2])N[*:1]; αMeY = C[C@](N)(Cc1ccc(O)cc1)C(=O)O; αMeL = CC(C)C[C@](C)(N)C(=O)O; Orn = NCCC[C@H](N)C(=O)O; AEEA = NCCOCCOCC(=O)O; Aib = CC(C)(N)C(=O)O
# Legend:
# human GIPR = molecular target: T1, human GIPR (Homo sapiens, UniProt P48546); assay: [125I]-GIP binding, SPA with WGA beads, 0.1% bacitracin; conditions: geometric mean, read-out: hGIPR Ki
# T1 construct: expressed in transfected cells; crude membranes
# T1 sequence (P48546 22-466): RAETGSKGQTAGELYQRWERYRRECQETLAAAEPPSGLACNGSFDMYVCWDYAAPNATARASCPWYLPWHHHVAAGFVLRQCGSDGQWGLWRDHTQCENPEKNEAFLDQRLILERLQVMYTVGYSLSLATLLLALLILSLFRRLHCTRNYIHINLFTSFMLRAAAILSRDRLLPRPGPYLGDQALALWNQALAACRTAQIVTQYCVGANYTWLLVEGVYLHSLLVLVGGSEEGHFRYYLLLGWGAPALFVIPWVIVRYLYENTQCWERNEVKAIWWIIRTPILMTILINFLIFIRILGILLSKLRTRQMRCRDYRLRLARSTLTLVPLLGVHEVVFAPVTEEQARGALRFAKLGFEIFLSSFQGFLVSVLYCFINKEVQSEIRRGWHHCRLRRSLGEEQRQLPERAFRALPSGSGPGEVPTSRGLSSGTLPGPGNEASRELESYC
# Outline: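 Ki values are geometric means (SEM, n independent days), derived from four-parameter nonlinear regression of IC50. Membranes came from hGIPR-expressing CHO cells.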
# human GLP-1R = molecular target: T2, human GLP-1R (Homo sapiens, UniProt P43220); assay: [125I]-GLP-1 binding, SPA with WGA beads, 0.1% bacitracin; conditions: geometric mean, read-out: hGLP1R Ki
# T2 construct: expressed in transfected cells; crude membranes
# T2 sequence (P43220 24-463): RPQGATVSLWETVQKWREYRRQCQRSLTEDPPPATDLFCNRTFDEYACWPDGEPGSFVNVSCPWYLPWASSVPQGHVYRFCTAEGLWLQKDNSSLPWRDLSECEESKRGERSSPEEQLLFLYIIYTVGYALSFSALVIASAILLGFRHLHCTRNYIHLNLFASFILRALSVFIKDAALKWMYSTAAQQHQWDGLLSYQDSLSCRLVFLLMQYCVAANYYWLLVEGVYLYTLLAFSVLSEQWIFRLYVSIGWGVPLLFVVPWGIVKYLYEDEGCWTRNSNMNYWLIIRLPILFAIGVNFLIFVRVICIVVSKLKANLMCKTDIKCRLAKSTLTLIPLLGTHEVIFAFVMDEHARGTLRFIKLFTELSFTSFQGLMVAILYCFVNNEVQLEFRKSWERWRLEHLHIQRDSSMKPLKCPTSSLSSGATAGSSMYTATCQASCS
# Outline: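 Binding buffer was 25 mM HEPES pH 7.4 with 2.5 mM CaCl2, 1 mM MgCl2, 0.1% (w/v) bacitracin, 0.003% Tween-20 and EDTA-free protease inhibitors. Four-parameter regression gave IC50, converted to Ki (geometric mean, SEM, n independent days).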
SMILES,pKi (human GIPR),pKi (human GLP-1R)
CC[C@H](C)[C@H](NC(=O)[C@H](CO)NC(=O)[C@H](Cc1ccc(O)cc1)NC(=O)[C@H](CC(=O)O)NC(=O)[C@H](CO)NC(=O)[C@@H](NC(=O)[C@H](Cc1ccccc1)NC(=O)[C@@H](NC(=O)CNC(=O)[C@H](CCC(=O)O)NC(=O)[C@@H](C)NC(=O)[C@@H](N)Cc1ccc(O)cc1)[C@@H](C)O)[C@@H](C)CC)C(=O)N[C@@H](CC(C)C)C(=O)N[C@@H](CC(C)C)C(=O)N[C@@H](CC(=O)O)C(=O)N[C@@H](CCCCN)C(=O)N[C@@H](CCCCNC(=O)COCCOCCNC(=O)COCCOCCNC(=O)CC[C@H](NC(=O)CCCCCCCCCCCCCCCCCCC(=O)O)C(=O)O)C(=O)N[C@@H](Cc1c[nH]cn1)C(=O)N[C@@H](CCC(N)=O)C(=O)N[C@@H](CCC(N)=O)C(=O)N[C@@H](CC(=O)O)C(=O)N[C@@H](Cc1ccccc1)C(=O)N[C@H](C(=O)N[C@@H](CC(N)=O)C(=O)N[C@@H](Cc1ccc(O)cc1)C(=O)N[C@@H](CC(C)C)C(=O)N[C@@H](CC(C)C)C(=O)N[C@@H](C)C(=O)N[C@@H](CCC(N)=O)C(=O)NCC(=O)N1CCC[C@H]1C(=O)N[C@@H](CO)C(=O)N[C@@H](CO)C(=O)NCC(=O)N[C@@H](C)C(=O)N1CCC[C@H]1C(=O)N1CCC[C@H]1C(=O)N1CCC[C@H]1C(=O)N[C@@H](CO)C(N)=O)C(C)C [Example 15] (H-Y[dA]EGTFISDYSILLDKK([AEEA-AEEA-γGlu-C20 diacid])HQQDFVNYLLAQGPSSGAPPPS-NH2),9.33,< 6.63
CC[C@H](C)[C@H](NC(=O)[C@H](CCCN)NC(=O)[C@H](CC(=O)O)NC(=O)[C@H](CC(C)C)NC(=O)[C@](C)(CC(C)C)NC(=O)[C@@H](NC(=O)[C@H](CO)NC(=O)[C@H](Cc1ccc(O)cc1)NC(=O)[C@H](CC(=O)O)NC(=O)[C@H](CO)NC(=O)[C@@H](NC(=O)[C@H](Cc1ccccc1)NC(=O)[C@@H](NC(=O)CNC(=O)[C@H](CCC(=O)O)NC(=O)C(C)(C)NC(=O)[C@@H](N)Cc1ccc(O)cc1)[C@@H](C)O)[C@@H](C)CC)[C@@H](C)CC)C(=O)N[C@@H](Cc1c[nH]cn1)C(=O)N[C@@H](CCC(N)=O)C(=O)NC(C)(C)C(=O)N[C@@H](CCC(=O)O)C(=O)N[C@@H](Cc1ccccc1)C(=O)N[C@H](C(=O)N[C@H](CCC(=O)O)C(=O)N[C@@H](Cc1ccc(O)cc1)C(=O)N[C@@H](CCCCNC(=O)COCCOCCNC(=O)COCCOCCNC(=O)CC[C@H](NC(=O)CCCCCCCCCCCCCCCCCCC(=O)O)C(=O)O)C(=O)N[C@@H](CC(C)C)C(=O)N[C@@H](CCC(=O)O)C(=O)NCC(=O)NCC(=O)N1CCC[C@H]1C(=O)N[C@@H](CO)C(=O)N[C@@H](CO)C(=O)NCC(=O)N[C@@H](C)C(=O)N1CCC[C@H]1C(=O)N1CCC[C@H]1C(=O)N1CCC[C@H]1C(=O)N[C@@H](CO)C(N)=O)C(C)C [Example 102] (H-Y[Aib]EGTFISDYSI[αMeL]LD[Orn]IHQ[Aib]EFV[dE]YK([AEEA-AEEA-γGlu-C20 diacid])LEGGPSSGAPPPS-NH2),9.79,< 6.04
CC[C@H](C)[C@H](NC(=O)[C@H](Cc1ccccc1)NC(=O)[C@@H](NC(=O)CNC(=O)[C@H](CCC(=O)O)NC(=O)C(C)(C)NC(=O)[C@@H](N)Cc1ccc(O)cc1)[C@@H](C)O)C(=O)N[C@@H](CO)C(=O)N[C@@H](CC(=O)O)C(=O)N[C@@H](Cc1ccc(O)cc1)C(=O)N[C@@H](CO)C(=O)N[C@H](C(=O)N[C@@](C)(CC(C)C)C(=O)N[C@@H](CC(C)C)C(=O)N[C@@H](CC(=O)O)C(=O)N[C@@H](CCCCN)C(=O)N[C@@H](CCCCNC(=O)COCCOCCNC(=O)COCCOCCNC(=O)CC[C@H](NC(=O)CCCCCCCCCCCCCCCCCCC(=O)O)C(=O)O)C(=O)N[C@@H](Cc1c[nH]cn1)C(=O)N[C@@H](CCC(N)=O)C(=O)NC(C)(C)C(=O)N[C@@H](CC(=O)O)C(=O)N[C@@H](Cc1ccccc1)C(=O)N[C@H](C(=O)N[C@@H](CCC(=O)O)C(=O)N[C@@](C)(Cc1ccc(O)cc1)C(=O)N[C@@H](CC(C)C)C(=O)N[C@@H](CC(C)C)C(=O)N[C@@H](CCC(=O)O)C(=O)N[C@@H](C)C(=O)NCC(=O)N1CCC[C@H]1C(=O)N[C@@H](CO)C(=O)N[C@@H](CO)C(=O)NCC(=O)N[C@@H](C)C(=O)N1CCC[C@H]1C(=O)N1CCC[C@H]1C(=O)N1CCC[C@H]1C(=O)N[C@@H](CO)C(N)=O)C(C)C)[C@@H](C)CC [Example 90] (H-Y[Aib]EGTFISDYSI[αMeL]LDKK([AEEA-AEEA-γGlu-C20 diacid])HQ[Aib]DFVE[αMeY]LLEAGPSSGAPPPS-NH2),9.89,6.99
CC[C@H](C)[C@H](NC(=O)[C@H](CCCCN)NC(=O)[C@H](CC(=O)O)NC(=O)[C@H](CC(C)C)NC(=O)[C@](C)(CC(C)C)NC(=O)[C@@H](NC(=O)[C@H](CO)NC(=O)[C@H](Cc1ccc(O)cc1)NC(=O)[C@H](CC(=O)O)NC(=O)[C@H](CO)NC(=O)[C@@H](NC(=O)[C@H](Cc1ccccc1)NC(=O)[C@@H](NC(=O)CNC(=O)[C@H](CCC(=O)O)NC(=O)C(C)(C)NC(=O)[C@@H](N)Cc1ccc(O)cc1)[C@@H](C)O)[C@@H](C)CC)[C@@H](C)CC)C(=O)N[C@@H](Cc1c[nH]cn1)C(=O)N[C@@H](CCC(N)=O)C(=O)NC(C)(C)C(=O)N[C@@H](CC(=O)O)C(=O)N[C@@H](Cc1ccccc1)C(=O)N[C@H](C(=O)N[C@@H](CCC(=O)O)C(=O)N[C@@H](Cc1ccc(O)cc1)C(=O)N[C@@H](CCCCNC(=O)COCCOCCNC(=O)COCCOCCNC(=O)CC[C@H](NC(=O)CCCCCCCCCCCCCCCCCCC(=O)O)C(=O)O)C(=O)N[C@@H](CC(C)C)C(=O)N[C@@H](CCC(=O)O)C(=O)N[C@@H](CCC(N)=O)C(=O)NCC(=O)N1CCC[C@H]1C(=O)N[C@@H](CO)C(=O)N[C@@H](CO)C(=O)NCC(=O)N[C@@H](C)C(=O)N1CCC[C@H]1C(=O)N1CCC[C@H]1C(=O)N1CCC[C@H]1C(=O)N[C@@H](CO)C(N)=O)C(C)C [Example 92] (H-Y[Aib]EGTFISDYSI[αMeL]LDKIHQ[Aib]DFVEYK([AEEA-AEEA-γGlu-C20 diacid])LEQGPSSGAPPPS-NH2),10.48,< 6.04
CC[C@H](C)[C@H](NC(=O)[C@H](Cc1ccccc1)NC(=O)[C@@H](NC(=O)CNC(=O)[C@H](CCC(=O)O)NC(=O)C(C)(C)NC(=O)[C@@H](N)Cc1ccc(O)cc1)[C@@H](C)O)C(=O)N[C@@H](CO)C(=O)N[C@@H](CC(=O)O)C(=O)N[C@@H](Cc1ccc(O)cc1)C(=O)N[C@@H](CO)C(=O)N[C@H](C(=O)N[C@@](C)(CC(C)C)C(=O)N[C@@H](CC(C)C)C(=O)N[C@@H](CC(=O)O)C(=O)N[C@@H](CCC(=O)O)C(=O)N[C@@H](CCCCNC(=O)COCCOCCNC(=O)COCCOCCNC(=O)CC[C@H](NC(=O)CCCCCCCCCCCCCCCCCCC(=O)O)C(=O)O)C(=O)N[C@@H](Cc1c[nH]cn1)C(=O)N[C@@H](CCC(N)=O)C(=O)NC(C)(C)C(=O)N[C@@H](CC(=O)O)C(=O)N[C@@H](Cc1ccccc1)C(=O)N[C@H](C(=O)N[C@@H](CCC(=O)O)C(=O)N[C@@H](Cc1ccncc1)C(=O)N[C@@H](CC(C)C)C(=O)N[C@@H](CC(C)C)C(=O)N[C@@H](C)C(=O)NCC(=O)NCC(=O)N1CCC[C@H]1C(=O)N[C@@H](CO)C(=O)N[C@@H](CO)C(=O)NCC(=O)N[C@@H](C)C(=O)N1CCC[C@H]1C(=O)N1CCC[C@H]1C(=O)N1CCC[C@H]1C(=O)N[C@@H](CO)C(N)=O)C(C)C)[C@@H](C)CC [Example 86],10.27,6.97
CC[C@H](C)[C@H](NC(=O)[C@H](CCCN)NC(=O)[C@H](CC(=O)O)NC(=O)[C@H](CC(C)C)NC(=O)[C@](C)(CC(C)C)NC(=O)[C@@H](NC(=O)[C@H](CO)NC(=O)[C@H](Cc1ccc(O)cc1)NC(=O)[C@H](CC(=O)O)NC(=O)[C@H](CO)NC(=O)[C@@H](NC(=O)[C@H](Cc1ccccc1)NC(=O)[C@@H](NC(=O)CNC(=O)[C@H](CCC(=O)O)NC(=O)C(C)(C)NC(=O)[C@@H](N)Cc1ccc(O)cc1)[C@@H](C)O)[C@@H](C)CC)[C@@H](C)CC)C(=O)N[C@@H](Cc1c[nH]cn1)C(=O)N[C@@H](CCC(N)=O)C(=O)NC(C)(C)C(=O)N[C@@H](CCC(=O)O)C(=O)N[C@@H](Cc1ccccc1)C(=O)N[C@H](C(=O)N[C@H](CCC(=O)O)C(=O)N[C@@H](Cc1ccc(O)cc1)C(=O)N[C@@H](CCCCNC(=O)COCCOCCNC(=O)COCCOCCNC(=O)CC[C@H](NC(=O)CCCCCCCCCCCCCCCCC(=O)O)C(=O)O)C(=O)N[C@@H](CC(C)C)C(=O)N[C@@H](CCC(=O)O)C(=O)NCC(=O)NCC(=O)N1CCC[C@H]1C(=O)N[C@@H](CO)C(=O)N[C@@H](CO)C(=O)NCC(=O)N[C@@H](C)C(=O)N1CCC[C@H]1C(=O)N1CCC[C@H]1C(=O)N1CCC[C@H]1C(=O)N[C@@H](CO)C(N)=O)C(C)C [Example 7],9.71,< 6.04
